Assay results: patent US8822449B2, “Substituted aminoindanes and analogs thereof, and the pharmaceutical use thereof” (Sanofi, priority 2008, dated 2014)

What follows are compounds tested against T1, sodium-proton exchanger of subtype 3 (NHE3) (Homo sapiens, UniProt P48764) (assay: Recovery of intracellular pH (pHi) after acidification in LAP1 cells stably expressing NHE3 (BCECF fluorescence, FLIPR)). Conditions: Activity range (inhibitory effect on NHE3), LAP1 cells stably expressing NHE3; pH recovery after acidification; range 1 is % inhibition at 10 μM.
T1 construct: expressed in transfected cells
T1 sequence (P48764 26-834): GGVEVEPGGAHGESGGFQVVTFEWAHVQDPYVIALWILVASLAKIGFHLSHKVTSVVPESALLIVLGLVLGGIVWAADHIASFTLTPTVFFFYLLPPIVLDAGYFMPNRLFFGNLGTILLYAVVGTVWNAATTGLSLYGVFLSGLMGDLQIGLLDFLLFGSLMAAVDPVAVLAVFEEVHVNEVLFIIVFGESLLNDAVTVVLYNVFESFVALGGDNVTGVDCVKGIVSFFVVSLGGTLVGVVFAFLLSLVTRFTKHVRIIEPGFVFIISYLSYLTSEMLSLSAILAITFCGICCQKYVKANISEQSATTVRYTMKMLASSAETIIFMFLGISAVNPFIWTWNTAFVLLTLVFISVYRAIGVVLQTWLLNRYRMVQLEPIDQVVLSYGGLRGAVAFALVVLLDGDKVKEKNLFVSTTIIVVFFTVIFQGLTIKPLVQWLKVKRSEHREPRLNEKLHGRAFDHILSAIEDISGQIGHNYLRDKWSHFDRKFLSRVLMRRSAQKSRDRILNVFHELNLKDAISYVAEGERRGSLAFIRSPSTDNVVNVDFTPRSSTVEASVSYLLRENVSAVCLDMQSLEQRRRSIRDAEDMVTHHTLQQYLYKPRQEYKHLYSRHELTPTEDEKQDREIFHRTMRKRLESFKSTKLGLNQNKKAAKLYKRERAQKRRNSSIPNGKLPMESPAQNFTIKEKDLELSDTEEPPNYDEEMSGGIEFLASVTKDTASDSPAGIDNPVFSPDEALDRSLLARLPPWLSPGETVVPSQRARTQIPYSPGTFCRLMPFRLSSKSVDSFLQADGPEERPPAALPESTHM
Format: cell-based

Row | SMILES | IC50
1 | N#Cc1ccc(O[C@H]2c3ccccc3C[C@@H]2N2CCCC2)cc1Cl (racemic) [Example 392, 2-chloro-4-(rac-trans-(1,2)-2-pyrrolidin-1-ylindan-1-yloxy)benzonitrile] | 1000 to 10000 nM
2 | O=C1CCCN1c1cccc(O[C@H]2c3ccccc3C[C@@H]2N2CCCC2)c1 (racemic) [Example 255, 1-[3-(rac-trans-(1,2)-2-pyrrolidin-1-ylindan-1-yloxy)phenyl]pyrrolidin-2-one] | 1000 to 10000 nM

Same assay, conditions: LAP1 cells stably expressing NHE3; pH recovery after acidification; range 1 is % inhibition at 10 μM; read-out: Activity range (inhibitory effect on NHE3)

Row | IC50 | inhibition at 10 µM | SMILES
3 | < 1000 nM | – | N[C@@H]1CCCN([C@H]2Cc3c(Cl)cc(Cl)cc3[C@@H]2Oc2ccc(-n3ccnc3)cc2)C1 [Example 98, (R)-1-[trans-(1S,2S)-4,6-dichloro-1-(4-imidazol-1-ylphenoxy)indan-2-yl]piperidin-3-ylamine]
4 | – | 20 to 50% | NS(=O)(=O)c1ccc(O[C@H]2c3cc(Cl)cc(Cl)c3C[C@@H]2N2CCC(F)(F)CC2)cc1 [Example 484, 4-[(1S,2S)-4,6-dichloro-2-(4,4-difluoropiperidin-1-yl)indan-1-yloxy]benzenesulfonamide]
5 | 1000 to 10000 nM | – | Cc1ccc2c(c1)C(Oc1ccc(S(N)(=O)=O)cc1)C(N1CCCC1)C2 (racemic) [Example 475, 4-(rac-trans-(1,2)-6-methyl-2-pyrrolidin-1-ylindan-1-yloxy)benzenesulfonamide]
6 | 1000 to 10000 nM | – | O=C1CCC(=O)N1c1cccc(O[C@H]2c3cc(Cl)cc(Cl)c3C[C@@H]2N2CC[C@@H](O)C2)c1 [Example 316, 1-{3-[(1S,2S)-4,6-dichloro-2-((R)-3-hydroxypyrrolidin-1-yl)indan-1-yloxy]phenyl}pyrrolidine-2,5-dione]
7 | – | 20 to 50% | NS(=O)(=O)c1ccc(O[C@H]2c3cccc(Cl)c3C[C@@H]2N2CCCC2)cc1 (racemic) [Example 471, 4-(rac-trans-(1,2)-4-chloro-2-pyrrolidin-1-ylindan-1-yloxy)benzenesulfonamide]
8 | 1000 to 10000 nM | – | CS(=O)(=O)c1ccc(N[C@H]2c3ccccc3C[C@@H]2N2CCCC2)cc1 [Example 707, (4-Methanesulfonyl-phenyl)-((1S,2S)-2-pyrrolidin-1-yl-indan-1-yl)-amine]
9 | 1000 to 10000 nM | – | COCCc1ccc(O[C@@H]2c3ccccc3C[C@H]2N2CCC(N)C2)cc1 (mixture of isomers) [Example 342, 1-{rac-trans-(1,2)-1-[4-(2-methoxyethyl)phenoxy]indan-2-yl}pyrrolidin-3-ylamine]
10 | – | 20 to 50% | N[C@@H]1CCCN([C@H]2CCc3ccccc3[C@@H]2Oc2ccc3oc(=O)sc3c2)C1 (racemic) [Example 578, 5-[rac-trans-(1,2)-2-((R)-3-aminopiperidin-1-yl)-1,2,3,4-tetrahydronaphthalen-1-yloxy]benzo[1,3]oxathiol-2-one]
11 | – | 20 to 50% | N#Cc1cc(Br)ccc1O[C@H]1c2ccccc2CC[C@@H]1N1CCC[C@@H](N)C1 (racemic) [Example 369, 2-[rac-trans-(1,2)-2-((S)-3-aminopiperidin-1-yl)-1,2,3,4-tetrahydronaphthalen-1-yloxy]-5-bromobenzonitrile]
12 | < 1000 nM | – | N[C@@H]1CCCN([C@H]2Cc3c(Cl)cc(Cl)cc3[C@@H]2Oc2ccc(-n3cncn3)cc2)C1 [Example 97, (R)-1-[trans-(1S,2S)-4,6-dichloro-1-(4-[1,2,4]triazol-1-ylphenoxy)indan-2-yl]piperidin-3-ylamine]
13 | 1000 to 10000 nM | – | CCc1ccc(O[C@@H]2c3ccccc3C[C@H]2N2CCC(N)C2)c(C(C)(C)C)c1 (mixture of isomers) [Example 267, 1-[rac-trans-(1,2)-1-(2-tert-butyl-4-ethylphenoxy)indan-2-yl]pyrrolidin-3-ylamine]
14 | < 1000 nM | – | Cn1ccn(-c2ccc(F)c(O[C@H]3c4cc(Cl)cc(F)c4C[C@@H]3N3CC[C@@H](O)C3)c2)c1=O [Example 318, 1-{3-[(1S,2S)-6-chloro-4-fluoro-2-((R)-3-hydroxypyrrolidin-1-yl)indan-1-yloxy]-4-fluorophenyl}-3-methyl-1,3-dihydroimidazol-2-one]
15 | < 1000 nM | – | NS(=O)(=O)c1ccc(O[C@H]2c3cc(Cl)cc(Cl)c3C[C@@H]2N2CCS(=O)(=O)CC2)cc1 [Example 483, 4-[(1S,2S)-4,6-dichloro-2-(1,1-dioxo-1lambda6-thiomorpholin-4-yl)indan-1-yloxy]benzenesulfonamide]
16 | 1000 to 10000 nM | – | CC(=O)Nc1cccc(OC2c3ccccc3CC2N2CC[C@@H](O)C2)c1 (mixture of isomers) [Example 681, N-{3-[rac-trans-(1,2)-2-((R)-3-hydroxypyrrolidin-1-yl)indan-1-yloxy]phenyl}acetamide]
17 | 1000 to 10000 nM | – | O=S(=O)(NCCC(F)(F)F)c1ccc(O[C@H]2c3ccccc3C[C@@H]2N2CCCC2)cc1 (racemic) [Example 470, 4-(rac-trans-(1,2)-2-pyrrolidin-1-ylindan-1-yloxy)-N-(3,3,3-trifluoropropyl)benzenesulfonamide]
18 | – | 20 to 50% | Clc1cc(Cl)c2c(c1)[C@H](Oc1ccc(-n3cncn3)cc1)[C@@H](N1CCOCC1)C2 (racemic) [Example 549, 4-[rac-trans-(1,2)-4,6-dichloro-1-(4-[1,2,4]triazol-1-ylphenoxy)indan-2-yl]morpholine]
19 | 1000 to 10000 nM | – | COCCc1ccc(O[C@@H]2c3ccccc3C[C@H]2N2C[C@H]3CNC[C@H]3C2)cc1 (racemic) [Example 19, 2-{rac-trans-(1,2)-1-[4-(2-methoxyethyl)phenoxy]indan-2-yl}octahydropyrrolo[3,4-c]pyrrole]
20 | < 1000 nM | – | O=C1CCCN1c1ccc(Cl)c(O[C@H]2c3cc(Cl)cc(Cl)c3C[C@@H]2N2CC[C@@H](O)C2)c1 [Example 336, 1-{4-chloro-3-[(1S,2S)-4,6-dichloro-2-((R)-3-hydroxypyrrolidin-1-yl)indan-1-yloxy]phenyl}pyrrolidin-2-one]
21 | 1000 to 10000 nM | – | CN(C)CCCN(C)[C@H]1Cc2ccccc2[C@@H]1Oc1ccc(S(C)(=O)=O)cc1 (racemic) [Example 669, N-[rac-trans-(1,2)-1-(4-methanesulfonylphenoxy)indan-2-yl]-N,N′,N′-trimethylpropane-1,3-diamine]
22 | 1000 to 10000 nM | – | N[C@H]1CCCN([C@H]2CCc3ccccc3[C@@H]2Oc2cccc3ncccc23)C1 (racemic) [Example 193, (S)-1-[rac-trans-(1,2)-1-(quinolin-5-yloxy)-1,2,3,4-tetrahydronaphthalen-2-yl]piperidin-3-ylamine]
23 | – | 20 to 50% | CN(C)C(=O)Cc1ccc(O[C@H]2c3ccccc3CC[C@@H]2N2CCC[C@@H](N)C2)cc1 (racemic) [Example 380, 2-{4-[rac-trans-(1,2)-2-((R)-3-aminopiperidin-1-yl)-1,2,3,4-tetrahydronaphthalen-1-yloxy]phenyl}-N,N-dimethylacetamide]
24 | 1000 to 10000 nM | – | CCN(CC)[C@@H]1Cc2ccccc2[C@H]1Oc1ccc(CCOC)cc1 (racemic) [Example 628, Diethyl-{rac-trans-(1,2)-1-[4-(2-methoxyethyl)phenoxy]indan-2-yl}amine]
25 | < 1000 nM | – | NC(=O)c1ccc(O[C@@H]2c3ccccc3C[C@H]2N2CCC[C@@H](N)C2)cc1 (racemic) [Example 524, 4-[rac-trans-(1,2)-2-((R)-3-aminopiperidin-1-yl)indan-1-yloxy]benzamide]
26 | – | 20 to 50% | CN(C)C[C@@H]1Cc2ccccc2[C@H]1Oc1ccc(S(C)(=O)=O)cc1 (racemic) [Example 244]
27 | – | 20 to 50% | N[C@@H]1CCCN([C@H]2CCc3ccccc3[C@@H]2Oc2ccc(Cl)nc2)C1 (racemic) [Example 81, (R)-1-[rac-trans-(1,2)-1-(6-chloropyridin-3-yloxy)-1,2,3,4-tetrahydronaphthalen-2-yl]piperidin-3-ylamine]
28 | – | 20 to 50% | CS(=O)(=O)c1ccc(O[C@H]2c3cc(Cl)cc(Cl)c3C[C@@H]2N2CCC(N)(C(F)(F)F)C2)cc1 (mixture of isomers) [Example 302, 1-[trans-(1S,2S)-4,6-dichloro-1-(4-methanesulfonylphenoxy)indan-2-yl]-3-trifluoromethylpyrrolidin-3-ylamine]
29 | – | 20 to 50% | N[C@H]1CCCN([C@H]2CCc3ccccc3[C@@H]2Oc2ccc(F)cc2-c2ccno2)C1 (racemic) [Example 178, (S)-1-[rac-trans-(1,2)-1-(4-fluoro-2-isoxazol-5-ylphenoxy)-1,2,3,4-tetrahydronaphthalen-2-yl]piperidin-3-ylamine]
30 | 1000 to 10000 nM | – | NC1CCN([C@@H]2Cc3ccccc3[C@H]2Oc2ccnc3ccccc23)C1 (mixture of isomers) [Example 275, 1-[rac-trans-(1,2)-1-(quinolin-4-yloxy)indan-2-yl]pyrrolidin-3-ylamine]
31 | 1000 to 10000 nM | – | NS(=O)(=O)c1ccc(O[C@H]2c3ccccc3C[C@@H]2N2CCCC(O)C2)c(Cl)c1Cl (mixture of isomers) [Example 361, 2,3-dichloro-4-[trans-(1S,2S)-2-(3-hydroxy-piperidin-1-yl)indan-1-yloxy]benzenesulfonamide]
